The values below come from US9969970B2, “DNA-cell conjugates” (The Regents of the University of California, priority 2009, dated 2018).

For data set [1], the system named is Jurkat cells. As to the kind of experiment: Bulk cell growth and morphology in the presence of adhesion molecules. Particulars: adhesion molecule in suspension; DNA-coated cells with complementary sequence. It counts as cell-based. On the procedure: (§1) FIG. 17. Comparison of biomolecule-based adhesion methods. a) Bulk cell growth rates were first determined in the presence of the adhesion molecules. A suspension of Jurkat cells was combined with ConA or anti-CD3 IgG, and a solution of DNA-coated cells was combined with the complementary DNA strands. At various time points the total number of cells was counted. The control sample was grown in the absence of any adhesion molecules. b) To evaluate cell capture efficiency, solutions of 20 μM FITC-labeled ssDNA, 20 μM FITC-labeled ConA, and 6 μM FITC-labeled anti-CD3 IgG were applied to aldehyde-coated glass slides, and the biomolecules were attached by reductive amination. Solutions containing 1×10^7 Jurkat cell mL^−1 were then introduced onto the resulting slides. The samples were incubated for 10 min at room temperature and then washed with two portions of phosphate-buffered saline (PBS) before evaluation. c) To evaluate cell viability, cells were immobilized on DNA, ConA, and anti-CD3 IgG coated aldehyde slides. […] The cells were evaluated within 1 h by fluorescence microscopy. * ConA and antibody immobilized cells that were partially stained by annexin were counted as cells undergoing apoptosis. […]
The effects of the adhesion molecules on the viability of the cells were assessed using two different methods. […]

Data set [2] deals with Jurkat cells. As to the kind of experiment: Cell capture, morphology and annexin V/PI viability of cells immobilized on biomolecule-coated slides. It counts as cell-based. As to the method: as §1, with “slides.” for “slides. The samples were incubated for 10 min at room temperature and then washed with two portions of phosphate-buffered saline (PBS) before evaluation. c) To evaluate cell viability, cells were immobilized on DNA, ConA, and anti-CD3 IgG coated aldehyde slides.”
The extent of apoptosis of surface bound cells was determined by annexin V/propidium iodide staining (BD Biosciences). […] The cells were imaged by fluorescence microscopy and the number of non-viable cells counted after one hour. […]

For data set [3], the system named is Jurkat cells. As to the kind of experiment: AFM measurement of de-adhesion force, cell-cantilever. The settings on record: cantilever attachment method. As to the method: FIG. 18. AFM measurement of de-adhesion force. A) Six sample traces for a single cell are shown in shades of gray, with the average trace shown in black. At zero distance, the cell is in full contact with the cantilever, which is applying a positive force. As distance increases, the cantilever is pulled away from the glass slide surface, causgin the cell-cantilever linkage to rupture and result in the zero-force, no-contact region. The force of d-adhesion was calculated as the difference between the curve minimum and the horizontal no=contact region. B) Adhesion forces were measured under different retraction rates (15.7 and 8.2 μm/s) and contact forces (400 and 200 pN) for the DNA, ConA, and antibody systems. Data were obtained by measuring size de-adhesion events on more than four different cells. Error bards represent one standard deviation.
Our assay to determine the strength of cantilever attachment was designed such that cell-cantilever adhesions were fewer in number, and therefore weaker overall, than DNA-based adhesions between a cell and the complementarily functionalized glass slide. […] The force of de-adhesion was measured for each attachment method using two different retraction rates and two different contact forces (FIG. 18a). The measured force of de-adhesion increased with contact force and retraction rate across all attachment methods, as predicted by the Bell model. […]

For data set [4] the following is noted: 20 bp DNA duplex; ConA-mannose; antibody-antigen; cited from earlier work.
The test system of data set [5] is Jurkat cells. As to the kind of experiment: Quantification of DNA attached to the cell surface. It counts as cell-based. The settings on record: Ac4ManNAz-fed cells, Staudinger ligation.
Data set [6] has as its system Jurkat cells. As to the kind of experiment: Single cell acidification on the bifunctional microelectrode array, rotenone stimulation. Type of data set: cell-based. As to the method:
Metabolic monitoring was accomplished as follows: Cells were suspended at a concentration of 10^6/ml, and the suspension was flowed into the microfluidic device. Cell suspensions were flowed into the channel using 1 mL syringes with Teflon tubing. Where Jurkat and primary T cells were monitored simultaneously they were labeled with CellTracker Green and Red dyes, respectively, as previously described and mixed in an equal ratio. Following a 5 min incubation to allow DNA-based cell capture, the unbound cells were rinsed away (5 ul/min for 3 min) with the low-buffered media. After rinsing, the pH response was monitored electrochemically for 10 min. After this recording, cells were released from the electrodes by heating the device to 55° C. and applying a strong rinse (200 uL/min) with the low-buffered media. Once rinsed and allowed to return to 37° C., the device could be reloaded with cells. This allowed for multiple measurements to be taken with a single cell preparation.
Voltage measurements were recorded between the iridium oxide electrode and a distant FLEXREF Ag/AgCl reference electrode from World Precision Instruments. An identical iridium oxide electrode outside the cell area was used to compensate for any sensor drift. The sensor electrodes were connected to a National Instruments PCI-6031E data acquisition card with 16 bit analog to digital conversion. The digitized signals were monitored using a custom Labview VI, sampling in multiplex at 3 hz. Voltage signals were processed with a 1% Loess filter using Peak Fit software to reduce noise.
(§2) Incubation with rotenone would be expected to interfere with the mitochondrial electron transport chain, causing cells to shift to lactic acid fermentation to complete the glycolytic cycle. The resulting excretion of lactic acid should then increase the rate of acidification in the cellular environment. In the experiment, captured cells were first incubated under normal conditions to establish a baseline rate of acidification (˜8.8 milli-pH/min) under aerobic metabolism.

The test system of data set [7] is Jurkat cells. Nature of the data set: Bulk cell acidification control with rotenone. It counts as cell-based. Particulars: 1 μM rotenone, low-buffered media, ~10^6 cells/mL, 37° C. On the procedure: as §2

{Phos} = phosphine group for Staudinger ligation to cell-surface azides Bounds are passed on as bounds.

As for concanavalin A [ConA], the “cell growth over a three-day period” value in data set [1] was “aggregated and were no longer alive after 12 h”. In addition, in data set [2] (24 and 48 h after immobilization), the “apoptotic and necrotic cells, annexin V and PI staining” value is “significantly higher numbers of apoptotic cells”. Further, the “morphology of immobilized cells” value in data set [2] (after 48 h on coated slides) is on record as “significant changes”. For the same compound, the “zero-force attachment events in de-adhesion measurements” value in data set [3] stood at 12%. Moreover, the “force of one individual linkage” value in data set [4] was 47 pN.
As for “Phosphine-modified ssDNA: phosphine-modified ssDNA (5′-phos-GTAACGATCCAGCTGTCACT-3′) ligated to cell-surface azides by Staudinger ligation (DNA GTAACGATCCAGCTGTCACT; DNA, 5' {Phos}, backbone not given here)”, the “ssDNA molecules per cell” value in data set [5] is listed as “≈ 270,000”.
As for `C=C(C)[C@H]1Cc2c(ccc3c2O[C@@H]2COc4cc(OC)c(OC)cc4[C@@H]2C3=O)O1` [rotenone], the “increase in the acidification rate” value in data set [6] (10 μM rotenone versus baseline) is “three-fold”. Moreover, in data set [6] (after addition of 10 μM rotenone), the “time to increase in acidification rate” value was no more than 1 min. Also, the acidification rate in data set [6] (single Jurkat cells after 10 μM rotenone added to channel, baseline ~8.8 milli-pH/min) is roughly 27.7 milli-pH/min. Moreover, the “acidification over 60 min compared to identical untreated cells” value in data set [7] is listed as “more than twice”.
